The structures appear in SMILES notation.

The target of this assay is T1, Oxytocin Receptor (CHO-OTR/NFAT-β-Lactamase cells) (Homo sapiens, UniProt P30559).
T1 construct: expressed in transfected cells; host or cells: CHO (CHO-OTR cell line further transfected with the NFAT-β-lactamase reporter)
T1 sequence (P30559 1-389): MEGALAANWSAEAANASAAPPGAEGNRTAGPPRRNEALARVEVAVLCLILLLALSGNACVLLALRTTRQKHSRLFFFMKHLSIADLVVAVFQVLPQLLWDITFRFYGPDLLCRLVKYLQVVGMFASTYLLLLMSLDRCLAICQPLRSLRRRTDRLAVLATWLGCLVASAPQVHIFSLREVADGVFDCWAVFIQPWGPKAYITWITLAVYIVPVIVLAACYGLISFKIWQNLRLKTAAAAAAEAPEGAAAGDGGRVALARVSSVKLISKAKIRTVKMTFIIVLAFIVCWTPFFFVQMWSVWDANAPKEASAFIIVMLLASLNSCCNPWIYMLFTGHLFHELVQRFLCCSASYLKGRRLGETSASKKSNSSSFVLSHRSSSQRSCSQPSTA
As to the kind of experiment: Oxytocin Receptor Beta-Lactamase Assay. The format is cell-based. Particulars: oxytocin stimulation 4 hours, read-out: oxytocin antagonist activity, expressed as a Ki value. On the procedure: A suitable assay for determining the oxytocin antagonist activity of a compound is detailed herein below.
Oxytocin Receptor Beta-Lactamase Assay
Cells used are CHO-OTR/NFAT-β-Lactamase. The NFAT-β-lactamase expression construct was transfected into the CHO-OTR cell line and clonal populations were isolated via fluorescence activated cell sorting (FACS). An appropriate clone was selected to develop the assay. […]
Cells grown at 80-90% confluence were harvested and counted. […]
Preparation of 1 ml of 6× Loading Buffer with Enhanced Loading Protocol (this requires scale-up according to number of plates to be screened) • 12 μl of solution A (1 mM CCF4-AM in Dry DMSO) was added to 60 μl of solution B (100 mg/ml Pluronic-F127 in DMSO+0.1% Acetic Acid) and vortexed. • The resulting solution was added to 925 μl of solution C (24% w/w PEG400, 18% TR40 v/v in water). • 75 μl of solution D was added (200 mM probenecid in 200 mM NaOH). • 10 μl of 6× Loading Buffer was added to all wells and incubated for 1.5 hrs-2 hrs at room temperature in the dark. • The plates were read using an LJL Analyst, Excitation 405 nm, Emission 450 nm and 530 nm, gain optimal, lagtime 0.40 μs integration, 4 flashes, bottom reading.

Consider `COC(=O)N1Cc2nc(OC)ccc2-n2c(nnc2-c2ccc(-c3ccccc3OC)cc2)C1` [Example 8], for which the Ki (commonly the dissociation constant of the complex between target and ligand, obtained from inhibition or displacement) turned out to be 3 nM.
